Test results: patent US8933230B2, “Phosphorus-containing group-substituted quinoline, its preparation process, medical composition containing the compounds and application” (priority 2011, dated 2015)

Tests used:
Assay in all cases: KinomeScan kinase panel
Format in all cases: binding
PDPK1 = biological target: T1, PDPK1 (Homo sapiens, UniProt O15530)
T1 construct: purchased DiscoveRx Corporation (KinomeScan panel)
Summary of the method: (§1)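 Inhibitory effect at a 1000 nM single dose, determined in KinomeScan's 442-kinase panel.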

[1] = biological target: T2, JAK2(JH1domain-catalytic) (Homo sapiens, UniProt O60674)
T2 construct: JAK2(JH1domain-catalytic); purchased DiscoveRx Corporation (KinomeScan)
Summary of the method: as §1

CSNK1D = biological target: T3, CSNK1D (Homo sapiens, UniProt P48730)
T3 construct: purchased DiscoveRx Corporation (KinomeScan)
Summary of the method: as §1

PKN1 = biological target: T4, PKN1 (Homo sapiens, UniProt Q16512)
T4 construct: purchased DiscoveRx Corporation (KinomeScan)
Summary of the method: as §1

YANK3 = biological target: T5, YANK3 (Homo sapiens, UniProt Q86UX6)
T5 construct: purchased DiscoveRx Corporation (KinomeScan service)
Summary of the method: as §1

PIK3CA (H1047Y) = biological target: T6, PIK3CA (H1047Y) (Homo sapiens, UniProt P42336, H1047Y)
T6 construct: purchased DiscoveRx Corporation (KinomeScan)
Summary of the method: as §1

MEK1 = biological target: T7, MEK1 (Homo sapiens, UniProt Q02750)
T7 construct: purchased DiscoveRx Corporation (KinomeScan)
Summary of the method: as §1

KIT(V559D, V654A) = biological target: T8, KIT(V559D, V654A) (Homo sapiens, UniProt P10721, V559D/V654A)
T8 construct: purchased DiscoveRx Corporation (KinomeScan)
Summary of the method: as §1

ACVR2B = biological target: T9, ACVR2B (Homo sapiens, UniProt Q13705)
T9 construct: purchased DiscoveRx Corporation (KinomeScan)
Summary of the method: as §1

MARK4 = biological target: T10, MARK4 (Homo sapiens, UniProt Q96L34)
T10 construct: purchased DiscoveRx Corporation (KinomeScan)
Summary of the method: as §1

TYRO3 = biological target: T11, TYRO3 (Homo sapiens, UniProt Q06418)
T11 construct: purchased DiscoveRx Corporation (KinomeScan service)
Summary of the method: as §1

ADCK3 = biological target: T12, ADCK3 (Homo sapiens, UniProt Q8NI60)
T12 construct: purchased DiscoveRx Corporation (KinomeScan)
Summary of the method: as §1

PFTAIRE2 = biological target: T13, PFTAIRE2 (Homo sapiens, UniProt Q96Q40)
T13 construct: purchased DiscoveRx Corporation (KinomeScan)
Summary of the method: as §1

PIK3CA(E545A) = biological target: T14, PIK3CA(E545A) (Homo sapiens, UniProt P42336, E545A)
T14 construct: purchased DiscoveRx Corporation (KinomeScan)
Summary of the method: as §1

[2] = biological target: T15, JAK3(JH1domain-catalytic) (Homo sapiens, UniProt P52333)
T15 construct: JAK3(JH1domain-catalytic); purchased DiscoveRx Corporation (KinomeScan)
T15 sequence (P52333 822-1111 limits assumed): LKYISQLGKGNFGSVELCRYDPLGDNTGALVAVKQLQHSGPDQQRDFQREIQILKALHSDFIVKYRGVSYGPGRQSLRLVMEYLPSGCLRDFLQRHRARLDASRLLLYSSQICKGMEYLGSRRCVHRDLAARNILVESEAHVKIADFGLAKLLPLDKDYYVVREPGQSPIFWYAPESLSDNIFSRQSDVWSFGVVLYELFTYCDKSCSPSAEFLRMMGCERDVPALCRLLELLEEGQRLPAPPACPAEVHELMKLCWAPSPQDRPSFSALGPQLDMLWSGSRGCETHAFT
Summary of the method: as §1

FGFR3(G697C) = biological target: T16, FGFR3(G697C) (Homo sapiens, UniProt P22607, G697C)
T16 construct: purchased DiscoveRx Corporation (KinomeScan)
Summary of the method: as §1

LRRK2 = biological target: T17, LRRK2 (Homo sapiens, UniProt Q5S007)
T17 construct: purchased DiscoveRx Corporation (KinomeScan)
Summary of the method: as §1

DYRK1A = biological target: T18, DYRK1A (Homo sapiens, UniProt Q13627)
T18 construct: purchased DiscoveRx Corporation (KinomeScan)
Summary of the method: as §1

ERK2 = biological target: T19, ERK2 (Homo sapiens, UniProt P28482)
T19 construct: purchased DiscoveRx Corporation (KinomeScan)
Summary of the method: as §1

ACVR1B = biological target: T20, ACVR1B (Homo sapiens, UniProt P36896)
T20 construct: purchased DiscoveRx Corporation (KinomeScan)
Summary of the method: as §1

ERK4 = biological target: T21, ERK4 (Homo sapiens, UniProt P31152)
T21 construct: purchased DiscoveRx Corporation (KinomeScan)
T21 sequence (P31152 whole entry): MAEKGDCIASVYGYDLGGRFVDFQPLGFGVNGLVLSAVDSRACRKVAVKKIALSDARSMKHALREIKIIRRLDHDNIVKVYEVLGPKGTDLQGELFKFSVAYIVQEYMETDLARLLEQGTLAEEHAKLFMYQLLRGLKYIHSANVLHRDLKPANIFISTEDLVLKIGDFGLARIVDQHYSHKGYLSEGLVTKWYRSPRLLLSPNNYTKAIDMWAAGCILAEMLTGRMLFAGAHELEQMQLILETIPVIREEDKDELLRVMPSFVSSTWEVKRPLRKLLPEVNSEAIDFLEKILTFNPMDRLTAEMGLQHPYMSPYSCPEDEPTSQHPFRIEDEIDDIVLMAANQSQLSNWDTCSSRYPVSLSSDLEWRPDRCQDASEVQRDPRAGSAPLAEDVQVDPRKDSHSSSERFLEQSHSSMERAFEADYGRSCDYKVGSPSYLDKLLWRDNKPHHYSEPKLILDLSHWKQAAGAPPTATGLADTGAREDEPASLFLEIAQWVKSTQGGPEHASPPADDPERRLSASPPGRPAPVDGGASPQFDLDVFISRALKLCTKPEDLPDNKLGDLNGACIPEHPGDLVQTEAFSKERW
Summary of the method: as §1

INSRR = biological target: T22, INSRR (Homo sapiens, UniProt P14616)
T22 construct: purchased DiscoveRx Corporation (KinomeScan)
Summary of the method: as §1

BRSK2 = biological target: T23, BRSK2 (Homo sapiens, UniProt Q8IWQ3)
T23 construct: purchased DiscoveRx Corporation (KinomeScan)
Summary of the method: as §1

MELK = biological target: T24, MELK (Homo sapiens, UniProt Q14680)
T24 construct: purchased DiscoveRx Corporation (KinomeScan)
T24 sequence (Q14680 whole entry): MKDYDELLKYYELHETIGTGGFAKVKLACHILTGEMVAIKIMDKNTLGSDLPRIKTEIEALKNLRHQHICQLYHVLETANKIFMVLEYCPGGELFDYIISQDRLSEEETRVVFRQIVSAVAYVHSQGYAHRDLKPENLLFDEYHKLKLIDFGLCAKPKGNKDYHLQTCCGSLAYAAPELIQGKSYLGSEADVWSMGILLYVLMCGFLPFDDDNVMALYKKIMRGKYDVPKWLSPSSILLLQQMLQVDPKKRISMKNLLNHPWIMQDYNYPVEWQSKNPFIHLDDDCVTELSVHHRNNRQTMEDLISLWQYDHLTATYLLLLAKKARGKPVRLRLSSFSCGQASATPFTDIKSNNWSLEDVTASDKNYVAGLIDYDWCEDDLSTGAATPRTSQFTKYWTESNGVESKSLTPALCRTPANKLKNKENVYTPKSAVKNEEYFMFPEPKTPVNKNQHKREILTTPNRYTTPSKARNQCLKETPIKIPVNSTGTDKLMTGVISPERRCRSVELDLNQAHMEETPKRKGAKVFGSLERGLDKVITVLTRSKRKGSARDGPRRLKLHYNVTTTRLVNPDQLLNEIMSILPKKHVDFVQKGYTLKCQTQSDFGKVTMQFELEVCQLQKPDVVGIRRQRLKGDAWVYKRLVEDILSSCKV
Summary of the method: as §1

AMPK-alpha1 = biological target: T25, AMPK-alpha1 (Homo sapiens, UniProt Q13131)
T25 construct: purchased DiscoveRx Corporation (KinomeScan)
T25 sequence (Q13131 whole entry): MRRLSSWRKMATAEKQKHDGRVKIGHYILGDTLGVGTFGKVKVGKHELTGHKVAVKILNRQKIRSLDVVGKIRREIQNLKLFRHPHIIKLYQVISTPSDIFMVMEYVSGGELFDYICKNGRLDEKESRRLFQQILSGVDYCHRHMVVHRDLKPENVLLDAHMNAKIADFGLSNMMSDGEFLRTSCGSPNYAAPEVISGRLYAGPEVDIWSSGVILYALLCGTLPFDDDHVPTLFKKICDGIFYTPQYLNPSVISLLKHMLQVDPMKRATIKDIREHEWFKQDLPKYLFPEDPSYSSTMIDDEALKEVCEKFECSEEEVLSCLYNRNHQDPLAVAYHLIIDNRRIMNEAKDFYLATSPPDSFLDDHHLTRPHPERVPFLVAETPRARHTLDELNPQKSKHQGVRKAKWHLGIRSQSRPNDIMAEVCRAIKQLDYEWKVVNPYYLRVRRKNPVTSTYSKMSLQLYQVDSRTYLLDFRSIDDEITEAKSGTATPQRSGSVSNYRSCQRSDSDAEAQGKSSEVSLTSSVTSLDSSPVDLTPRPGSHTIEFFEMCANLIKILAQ
Summary of the method: as §1

CDK11 = biological target: T26, CDK11 (Homo sapiens, UniProt Q9BWU1)
T26 construct: purchased DiscoveRx Corporation (KinomeScan)
Summary of the method: as §1

[3] = biological target: T27, ABL1(F317I)-phosphorylated (Homo sapiens, UniProt P00519, F317I)
T27 construct: purchased DiscoveRx Corporation (KinomeScan)
Summary of the method: as §1

FLT1 = biological target: T28, FLT1 (Homo sapiens, UniProt P17948)
T28 construct: purchased DiscoveRx Corporation (KinomeScan)
Summary of the method: as §1

CAMKK1 = biological target: T29, CAMKK1 (Homo sapiens, UniProt Q8N5S9)
T29 construct: purchased DiscoveRx Corporation (KinomeScan)
Summary of the method: as §1

[4] = biological target: T30, RSK3(Kin.Dom.2-C-terminal) (Homo sapiens, UniProt Q15349)
T30 construct: Kin.Dom.2; purchased DiscoveRx Corporation (KinomeScan)
T30 sequence (Q15349 415-672 limits assumed): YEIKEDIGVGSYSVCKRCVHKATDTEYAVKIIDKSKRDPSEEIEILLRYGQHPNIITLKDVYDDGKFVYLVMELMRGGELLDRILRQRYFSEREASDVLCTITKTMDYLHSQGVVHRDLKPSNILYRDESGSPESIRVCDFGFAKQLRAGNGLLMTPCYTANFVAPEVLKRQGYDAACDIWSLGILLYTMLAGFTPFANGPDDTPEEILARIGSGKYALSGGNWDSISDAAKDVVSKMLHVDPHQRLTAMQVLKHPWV
Summary of the method: as §1

PIK3CG = biological target: T31, PIK3CG (Homo sapiens, UniProt P48736)
T31 construct: purchased DiscoveRx Corporation (KinomeScan)
T31 sequence (P48736 whole entry): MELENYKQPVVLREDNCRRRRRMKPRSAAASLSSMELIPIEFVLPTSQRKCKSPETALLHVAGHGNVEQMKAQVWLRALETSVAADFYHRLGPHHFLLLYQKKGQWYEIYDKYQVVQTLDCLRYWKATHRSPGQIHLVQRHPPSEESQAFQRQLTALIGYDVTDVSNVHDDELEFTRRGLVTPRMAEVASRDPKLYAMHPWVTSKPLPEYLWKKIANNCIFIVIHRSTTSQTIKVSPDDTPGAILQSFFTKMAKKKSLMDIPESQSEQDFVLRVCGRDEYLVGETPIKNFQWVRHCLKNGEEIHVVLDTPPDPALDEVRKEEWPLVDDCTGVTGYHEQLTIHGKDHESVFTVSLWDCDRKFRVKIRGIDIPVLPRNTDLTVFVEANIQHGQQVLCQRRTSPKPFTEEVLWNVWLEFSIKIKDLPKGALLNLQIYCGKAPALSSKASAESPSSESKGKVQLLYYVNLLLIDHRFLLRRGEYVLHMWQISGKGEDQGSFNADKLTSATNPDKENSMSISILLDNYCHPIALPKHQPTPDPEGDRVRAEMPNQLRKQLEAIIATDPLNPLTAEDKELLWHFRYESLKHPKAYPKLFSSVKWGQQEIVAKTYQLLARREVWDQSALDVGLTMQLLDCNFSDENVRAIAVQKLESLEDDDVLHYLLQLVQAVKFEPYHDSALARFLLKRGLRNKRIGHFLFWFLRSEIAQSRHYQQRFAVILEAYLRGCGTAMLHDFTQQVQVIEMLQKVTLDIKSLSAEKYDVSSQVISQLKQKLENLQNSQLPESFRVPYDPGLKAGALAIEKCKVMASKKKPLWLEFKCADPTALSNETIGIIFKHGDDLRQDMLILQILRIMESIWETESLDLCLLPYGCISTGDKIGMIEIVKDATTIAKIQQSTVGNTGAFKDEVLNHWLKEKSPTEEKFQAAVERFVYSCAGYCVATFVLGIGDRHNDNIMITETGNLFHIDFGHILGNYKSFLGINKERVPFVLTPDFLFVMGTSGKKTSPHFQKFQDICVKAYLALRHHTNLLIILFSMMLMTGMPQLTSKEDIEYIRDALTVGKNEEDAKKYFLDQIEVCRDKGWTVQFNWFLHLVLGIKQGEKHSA
Summary of the method: as §1

MAST1 = biological target: T32, MAST1 (Homo sapiens, UniProt Q9Y2H9)
T32 construct: purchased DiscoveRx Corporation (KinomeScan)
T32 sequence (Q9Y2H9 whole entry): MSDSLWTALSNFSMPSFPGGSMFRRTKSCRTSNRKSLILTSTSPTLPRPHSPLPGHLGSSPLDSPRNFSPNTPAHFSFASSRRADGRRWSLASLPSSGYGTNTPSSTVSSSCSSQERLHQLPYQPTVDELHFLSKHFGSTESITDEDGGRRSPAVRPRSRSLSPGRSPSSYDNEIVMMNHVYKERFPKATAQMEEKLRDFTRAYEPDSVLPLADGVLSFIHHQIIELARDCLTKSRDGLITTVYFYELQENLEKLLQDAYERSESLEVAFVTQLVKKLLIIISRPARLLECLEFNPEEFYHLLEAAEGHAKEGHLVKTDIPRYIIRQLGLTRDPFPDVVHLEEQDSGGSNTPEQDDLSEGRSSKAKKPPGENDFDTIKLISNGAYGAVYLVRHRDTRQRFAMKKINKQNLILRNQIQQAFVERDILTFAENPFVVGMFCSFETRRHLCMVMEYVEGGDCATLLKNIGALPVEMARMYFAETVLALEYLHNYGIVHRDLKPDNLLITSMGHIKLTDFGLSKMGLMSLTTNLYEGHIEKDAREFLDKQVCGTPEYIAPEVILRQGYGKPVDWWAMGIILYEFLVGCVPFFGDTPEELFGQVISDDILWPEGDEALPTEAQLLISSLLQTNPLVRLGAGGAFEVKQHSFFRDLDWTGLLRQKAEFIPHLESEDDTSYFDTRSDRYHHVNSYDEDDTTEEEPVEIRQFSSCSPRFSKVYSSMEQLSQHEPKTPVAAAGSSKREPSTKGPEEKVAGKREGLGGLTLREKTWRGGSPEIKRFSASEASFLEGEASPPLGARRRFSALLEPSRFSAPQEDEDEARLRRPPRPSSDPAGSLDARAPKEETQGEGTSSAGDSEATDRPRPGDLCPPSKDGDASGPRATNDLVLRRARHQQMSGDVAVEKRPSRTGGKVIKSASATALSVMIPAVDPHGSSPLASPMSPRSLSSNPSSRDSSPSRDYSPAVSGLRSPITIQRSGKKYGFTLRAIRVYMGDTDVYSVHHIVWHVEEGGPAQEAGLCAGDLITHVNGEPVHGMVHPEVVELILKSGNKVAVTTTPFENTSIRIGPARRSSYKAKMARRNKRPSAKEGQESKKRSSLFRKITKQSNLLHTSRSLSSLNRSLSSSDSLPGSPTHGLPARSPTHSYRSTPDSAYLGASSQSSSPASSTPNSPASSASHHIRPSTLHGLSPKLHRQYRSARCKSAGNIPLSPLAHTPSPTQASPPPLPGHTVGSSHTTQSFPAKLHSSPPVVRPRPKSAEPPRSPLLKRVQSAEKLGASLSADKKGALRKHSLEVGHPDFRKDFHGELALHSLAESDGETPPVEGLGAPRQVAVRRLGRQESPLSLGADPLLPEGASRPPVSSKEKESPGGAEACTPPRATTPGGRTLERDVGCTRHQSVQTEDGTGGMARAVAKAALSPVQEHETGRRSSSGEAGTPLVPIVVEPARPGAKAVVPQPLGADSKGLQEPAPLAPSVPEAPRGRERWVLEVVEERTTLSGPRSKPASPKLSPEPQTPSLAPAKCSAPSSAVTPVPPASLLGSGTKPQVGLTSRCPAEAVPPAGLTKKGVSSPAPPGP
Summary of the method: as §1

PIK3CA = biological target: T33, PIK3CA (Homo sapiens, UniProt P42336)
T33 construct: purchased DiscoveRx Corporation (KinomeScan)
Summary of the method: as §1

RET (V804M) = biological target: T34, RET (V804M) (Homo sapiens, UniProt P07949, V804M)
T34 construct: purchased DiscoveRx Corporation
Summary of the method: as §1

Which results are given for `CCOP(=O)(CN1CCC(COc2cc3nccc(Oc4ccc(NC(=O)C5(C(=O)Nc6ccc(F)cc6)CC5)cc4F)c3cc2OC)CC1)OCC` [Example 10, N1-[4-[[7-[[1-(diethoxyphosphorylmethyl)-4-piperidinyl]methoxyl]-6-methoxyl-4-quinolyl]oxyl]-3-fluorophenyl]-N1′-(4-fluorophenyl)cyclopropane-1,1-dicarboxamide]?
% Ctrl@1000 nM (PDPK1): 100 % Ctrl; % Ctrl@1000 nM [1]: 100 % Ctrl; % Ctrl@1000 nM (CSNK1D): 100 % Ctrl; % Ctrl@1000 nM (PKN1): 100 % Ctrl; % Ctrl@1000 nM (YANK3): 100 % Ctrl; % Ctrl@1000 nM (PIK3CA (H1047Y)): 63 % Ctrl; % Ctrl@1000 nM (MEK1): 24 % Ctrl; % Ctrl@1000 nM (KIT(V559D, V654A)): 4.1 % Ctrl; % Ctrl@1000 nM (ACVR2B): 100 % Ctrl; % Ctrl@1000 nM (MARK4): 100 % Ctrl; % Ctrl@1000 nM (TYRO3): 41 % Ctrl; % Ctrl@1000 nM (ADCK3): 67 % Ctrl; % Ctrl@1000 nM (PFTAIRE2): 87 % Ctrl; % Ctrl@1000 nM (PIK3CA(E545A)): 74 % Ctrl; % Ctrl@1000 nM [2]: 100 % Ctrl; % Ctrl@1000 nM (FGFR3(G697C)): 100 % Ctrl; % Ctrl@1000 nM (LRRK2): 100 % Ctrl; % Ctrl@1000 nM (DYRK1A): 100 % Ctrl; % Ctrl@1000 nM (ERK2): 100 % Ctrl; % Ctrl@1000 nM (ACVR1B): 100 % Ctrl; % Ctrl@1000 nM (ERK4): 100 % Ctrl; % Ctrl@1000 nM (INSRR): 65 % Ctrl; % Ctrl@1000 nM (BRSK2): 100 % Ctrl; % Ctrl@1000 nM (MELK): 29 % Ctrl; % Ctrl@1000 nM (AMPK-alpha1): 100 % Ctrl; % Ctrl@1000 nM (CDK11): 67 % Ctrl; % Ctrl@1000 nM [3]: 70 % Ctrl; % Ctrl@1000 nM (FLT1): 7.3 % Ctrl; % Ctrl@1000 nM (CAMKK1): 32 % Ctrl; % Ctrl@1000 nM [4]: 100 % Ctrl; % Ctrl@1000 nM (PIK3CG): 100 % Ctrl; % Ctrl@1000 nM (MAST1): 100 % Ctrl; % Ctrl@1000 nM (PIK3CA): 100 % Ctrl; % Ctrl@1000 nM (RET (V804M)): 0.6 % Ctrl
